Laboratory results: patent US10174037B2, “Dihydropyrazolopyrimidinone compounds as PDE2 inhibitors” (Merck Sharp & Dohme Corp., priority 2015, dated 2019)
Like-named read-outs stand apart in the source and are kept apart here.

How the values were obtained:
human PDE2A1 = human PDE2A1 (Homo sapiens (Human), UniProt O00408); test: PDE selectivity IMAP FP assay, human PDE2A1; type: biochemical; conditions: Human PDE2
Summary of the method: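 IMAP fluorescence polarization assay; PDE2 substrate 50 nM FAM-cAMP containing 1000 nM cGMP, enzyme diluted for 20% substrate conversion, in 10 mM Tris HCl pH 7.2, 10 mM MgCl2, 1 mM DTT. Reaction 60 min at room temperature, stopped with IMAP binding solution; polarization read after 1 h. Ki reported.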

Rhesus PDE2A3 = Rhesus PDE2A3 (Macaca mulatta, UniProt B3VTJ2); test: PDE2 fluorescence polarization (IMAP FP) assay, rhesus PDE2A3; type: biochemical, rhesus macaque
[1] = Lab B, read-out: Human PDE2 Ki (nM) Lab B
[2] = Lab B, read-out: Rhesus PDE2 Ki (nM) Lab B
[3] = Lab A, read-out: Human PDE2 Ki (nM) Lab A
[4] = Lab A, read-out: Rhesus PDE2 Ki (nM) Lab A

Chain of human PDE2A1 (O00408 other isoform, or with tags, fused parts or gaps): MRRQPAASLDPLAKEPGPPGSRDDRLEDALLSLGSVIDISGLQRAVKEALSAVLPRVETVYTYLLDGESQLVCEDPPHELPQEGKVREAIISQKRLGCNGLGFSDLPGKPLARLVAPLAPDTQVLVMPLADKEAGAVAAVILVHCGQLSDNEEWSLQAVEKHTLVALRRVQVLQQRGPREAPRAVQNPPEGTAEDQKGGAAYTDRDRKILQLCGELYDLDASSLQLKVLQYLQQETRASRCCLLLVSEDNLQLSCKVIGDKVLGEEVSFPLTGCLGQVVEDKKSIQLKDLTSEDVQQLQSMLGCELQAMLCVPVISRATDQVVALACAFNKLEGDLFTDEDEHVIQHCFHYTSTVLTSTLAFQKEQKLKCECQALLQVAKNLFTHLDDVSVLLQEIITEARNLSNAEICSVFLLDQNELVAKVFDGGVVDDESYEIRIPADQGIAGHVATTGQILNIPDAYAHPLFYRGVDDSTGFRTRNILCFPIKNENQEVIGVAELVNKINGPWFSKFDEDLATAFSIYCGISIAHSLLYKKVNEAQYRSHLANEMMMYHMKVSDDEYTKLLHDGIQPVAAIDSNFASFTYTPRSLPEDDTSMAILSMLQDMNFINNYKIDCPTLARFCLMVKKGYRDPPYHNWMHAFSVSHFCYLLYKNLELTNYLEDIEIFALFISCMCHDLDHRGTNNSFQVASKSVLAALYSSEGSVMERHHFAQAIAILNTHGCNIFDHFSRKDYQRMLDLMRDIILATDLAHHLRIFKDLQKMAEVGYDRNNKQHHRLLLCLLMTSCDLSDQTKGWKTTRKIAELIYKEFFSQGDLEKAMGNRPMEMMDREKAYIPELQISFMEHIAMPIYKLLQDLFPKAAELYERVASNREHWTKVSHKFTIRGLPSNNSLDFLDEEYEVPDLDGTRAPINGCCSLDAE
Chain of Rhesus PDE2A3 (B3VTJ2 1-941): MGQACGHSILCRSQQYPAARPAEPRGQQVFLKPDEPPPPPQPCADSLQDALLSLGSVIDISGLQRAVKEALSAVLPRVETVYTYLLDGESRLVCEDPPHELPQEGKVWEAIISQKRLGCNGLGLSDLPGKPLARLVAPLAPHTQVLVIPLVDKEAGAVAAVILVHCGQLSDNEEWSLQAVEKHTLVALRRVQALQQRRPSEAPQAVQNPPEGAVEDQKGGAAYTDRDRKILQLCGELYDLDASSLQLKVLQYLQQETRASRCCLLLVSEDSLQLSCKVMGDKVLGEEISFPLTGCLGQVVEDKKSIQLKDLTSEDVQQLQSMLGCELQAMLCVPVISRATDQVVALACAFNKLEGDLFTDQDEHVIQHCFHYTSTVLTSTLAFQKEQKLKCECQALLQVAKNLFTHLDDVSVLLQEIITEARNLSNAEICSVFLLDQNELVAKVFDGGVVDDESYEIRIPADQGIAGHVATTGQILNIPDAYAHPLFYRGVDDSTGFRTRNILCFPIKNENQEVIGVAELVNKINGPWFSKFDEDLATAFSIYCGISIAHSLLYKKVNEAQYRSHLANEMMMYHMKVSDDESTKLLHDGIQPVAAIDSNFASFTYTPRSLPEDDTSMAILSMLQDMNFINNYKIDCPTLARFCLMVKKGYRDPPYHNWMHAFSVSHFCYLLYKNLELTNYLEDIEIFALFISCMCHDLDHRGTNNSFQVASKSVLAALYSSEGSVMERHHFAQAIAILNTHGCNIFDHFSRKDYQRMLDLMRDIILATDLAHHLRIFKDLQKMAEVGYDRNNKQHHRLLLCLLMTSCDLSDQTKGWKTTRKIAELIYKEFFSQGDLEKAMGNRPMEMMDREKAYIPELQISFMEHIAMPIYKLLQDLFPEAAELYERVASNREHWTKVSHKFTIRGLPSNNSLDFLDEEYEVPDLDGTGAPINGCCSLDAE

Compound: COCc1nn([C@@H](C)c2ccc(C(F)(F)F)cc2)c2nc(O)[nH]c(=O)c12 [Example 304, (S)-6-Hydroxy-3-(methoxymethyl)-1-(1-(4-(trifluoromethyl)phenyl)ethyl)-1,5-dihydro-4H-pyrazolo[3,4-d]pyrimidin-4-one]
- Ki (human PDE2A1; [1]): 46 nM
- Ki (Rhesus PDE2A3; [2]): 43 nM

Compound: CC(c1ccc(OC(F)(F)F)c(F)c1)n1nc(CF)c2c(=O)[nH]c(O)nc21 (centres unmarked) [Example 38, 1-(1-(3-Fluoro-4-(trifluoromethoxy)phenyl)ethyl)-3-(fluoromethyl)-6-hydroxy-1H-pyrazolo[3,4-d]pyrimidin-4(5H)-one]
- Ki (human PDE2A1; [3]): 2.8 nM
- Ki (human PDE2A1; [1]): 8.5 nM
- Ki (Rhesus PDE2A3; [4]): 7.2 nM
- Ki (Rhesus PDE2A3; [2]): 8.3 nM

Compound: CN(C)c1nc2c(c(CO)nn2C(c2ccc(C(F)F)cc2)C2CC2)c(=O)[nH]1 (single isomer, unassigned) [Example 62]
- Ki (human PDE2A1; [1]): 0.27 nM
- Ki (Rhesus PDE2A3; [2]): 0.28 nM

Compound: CN(C)c1nc2c(c(CO)nn2C(c2ccc(C(F)(F)F)cc2)C2CC2)c(=O)[nH]1 (single isomer, unassigned) [Example 74, (R)- or (S)-1-(Cyclopropyl(4-(trifluoromethyl)phenyl)methyl)-6-(dimethylamino)-3-(hydroxymethyl)-1H-pyrazolo[3,4-d]pyrimidin-4(5H)-one]
- Ki (human PDE2A1; [1]): 0.17 nM
- Ki (Rhesus PDE2A3; [2]): 0.15 nM

Compound: CC(c1ccc(C(F)(F)F)c(F)c1)n1nc(CO)c2c(=O)[nH]c(O)nc21 (single isomer, unassigned) [Example 1]
- Ki (human PDE2A1; [1]): 11 nM
- Ki (Rhesus PDE2A3; [2]): 13 nM

Compound: CC(c1ccc(OC(F)(F)F)c(F)c1)n1nc(CC#N)c2c(=O)[nH]c(O)nc21 (single isomer, unassigned) [Example 299, (R)- or (S)-2-(1-(1-(3-Fluoro-4-(trifluoromethoxy)phenyl)ethyl)-6-hydroxy-4-oxo-4,5-dihydro-1H-pyrazolo[3,4-d]pyrimidin-3-yl)acetonitrile]
- Ki (human PDE2A1; [1]): 17 nM
- Ki (Rhesus PDE2A3; [2]): 21 nM

Compound: CC(C)C(c1ccc(OC(F)(F)F)cc1)n1nc(CF)c2c(=O)[nH]c(O)nc21 (single isomer, unassigned) [Example 43, (S)- or (R)-3-(Fluorornethyl)-6-hydroxy-1-(2-methyl-1-(4-(trifluoromethoxy)phenyl)propyl)-1H-pyrazolo[3,4-d]pyrimidin-4(5H)-one]
- Ki (human PDE2A1; [1]): 5.3 nM
- Ki (Rhesus PDE2A3; [2]): 4.7 nM

Compound: CC(c1ccc(S(F)(F)(F)(F)F)cc1)n1nc(CO)c2c(=O)[nH]c(O)nc21 (single isomer, unassigned) [Example 21, (S)- or (R)-6-Hydroxy-3-(hydroxymethyl)-1-{1-[4-(pentafluorosulfanyl)phenyl]ethyl}-1,5-dihydro-4H-pyrazolo[3,4-d]pyrimidin-4-one]
- Ki (human PDE2A1; [3]): 13 nM
- Ki (human PDE2A1; [1]): 28 nM
- Ki (Rhesus PDE2A3; [4]): 20 nM
- Ki (Rhesus PDE2A3; [2]): 27 nM

Compound: C[C@@H](c1ccc(S(F)(F)(F)(F)F)cc1)n1nc(CF)c2c(=O)[nH]c(O)nc21 [Example 50, (S)-3-(Fluoromethyl)-6-hydroxy-1-(1-(4-(pentafluorolhio)phenyl)ethyl)-1H-pyrazolo[3,4-d]pyrimidin-4(5H)-one]
- Ki (human PDE2A1; [1]): 7 nM
- Ki (Rhesus PDE2A3; [2]): 6.8 nM

Compound: CC(C)C(c1ccc(C(F)(F)F)c(F)c1)n1nc(CO)c2c(=O)[nH]c(O)nc21 (single isomer, unassigned) [Example 27, (R)- or (S)-1-(1-(3-Fluoro-4-(trifluoromethyl)phenyl)-2-methylpropyl)-6-hydroxy-3-(hydroxymethyl)-1H-pyrazolo[3,4-d]pyrimidin-4(5H)-one]
- Ki (human PDE2A1; [1]): 7 nM
- Ki (Rhesus PDE2A3; [2]): 5.2 nM

Compound: CCC(c1ccc(C(F)(F)F)c(F)c1)n1nc(CF)c2c(=O)[nH]c(N(C)C)nc21 (single isomer, unassigned) [Example 222, (R)- or (S)-6-(Dimethylamino)-1-(1-(3-fluoro-4-(trifluoromethyl)phenyl)propyl)-3-(fluoromethyl)-1H-pyrazolo[3,4-d]pyrimidin-4(5H)-one]
- Ki (human PDE2A1; [1]): 0.044 nM
- Ki (Rhesus PDE2A3; [2]): 0.063 nM

Compound: CC(c1ccc(OC(F)(F)F)cc1)n1nc(CO)c2c(=O)[nH]c(O)nc21 (centres unmarked) [Example 5]
- Ki (human PDE2A1; [3]): 59 nM
- Ki (Rhesus PDE2A3; [4]): 77 nM
- Ki (Rhesus PDE2A3; [2]): 126 nM
